Test results reported in the NIST ThermoML archive (doi:10.1016/j.fluid.2014.11.020).
Numbers after ± are expanded uncertainties.

Assay: activity coefficient (dimensionless); of the first substance listed, at infinite dilution; xn = mol fraction of the nth substance listed
Conditions: Liquid, Chromatography, x1 = 0

Row | Structure (SMILES) | activity coefficient (323.15 K) | activity coefficient (333.15 K) | activity coefficient (343.15 K)
1 | Cc1ccc(C)cc1 [1,4-dimethylbenzene] + CCCOC[n+]1ccn(Cc2ccccc2)c1.O=S(=O)([N-]S(=O)(=O)C(F)(F)F)C(F)(F)F | 1.56 ± 0.1 | 1.37 ± 0.09 | 1.34 ± 0.09
2 | C[N+](=O)[O-] [nitromethane] + CCCCCCCCn1cc[n+](COCCCOC[n+]2ccn(CCCCCCCC)c2C)c1C.O=S(=O)([N-]S(=O)(=O)C(F)(F)F)C(F)(F)F.O=S(=O)([N-]S(=O)(=O)C(F)(F)F)C(F)(F)F | 0.31 ± 0.03 | 0.29 ± 0.03 | 0.47 ± 0.04
3 | Cc1ccc(C)cc1 [1,4-dimethylbenzene] + CCCCCCCCn1cc[n+](COCCC)c1C.N#C[N-]C#N | 1.51 ± 0.1 | 1.52 ± 0.1 | 1.56 ± 0.1
4 | CC#N [acetonitrile] + CCCOC[n+]1ccn(Cc2ccccc2)c1.F[B-](F)(F)F | 0.63 ± 0.04 | 0.63 ± 0.04 | 0.63 ± 0.04
5 | CCC(C)=O [butanone] + CCCCCCCCn1cc[n+](COCCC)c1C.N#C[N-]C#N | 0.7 ± 0.05 | 0.64 ± 0.04 | 0.55 ± 0.04
6 | Cc1ccccc1 [toluene] + CCCOC[n+]1ccn(Cc2ccccc2)c1.O=S(=O)([N-]S(=O)(=O)C(F)(F)F)C(F)(F)F | 1.09 ± 0.07 | 0.97 ± 0.06 | 0.96 ± 0.06
7 | CCCCCCC [heptane] + CCCCCCCCn1cc[n+](COCCC)c1C.O=S(=O)([N-]S(=O)(=O)C(F)(F)F)C(F)(F)F | 4.64 ± 0.32 | 4.56 ± 0.31 | 3.98 ± 0.27
8 | CC(C)OC(C)C [diisopropyl ether] + CN(C)c1cc[n+](COCCCOC[n+]2ccc(N(C)C)cc2)cc1.O=S(=O)([N-]S(=O)(=O)C(F)(F)F)C(F)(F)F.O=S(=O)([N-]S(=O)(=O)C(F)(F)F)C(F)(F)F | 5.9 ± 0.4 | 5.72 ± 0.39 | 5.65 ± 0.39
9 | CCOCC [diethyl ether] + CCCCCCCCn1cc[n+](COCCCOC[n+]2ccn(CCCCCCCC)c2C)c1C.O=S(=O)([N-]S(=O)(=O)C(F)(F)F)C(F)(F)F.O=S(=O)([N-]S(=O)(=O)C(F)(F)F)C(F)(F)F | 0.86 ± 0.06 | 0.88 ± 0.06 | 0.92 ± 0.06
10 | CCCCO [butan-1-ol] + CCCOC[n+]1ccn(C)c1.F[B-](F)(F)F | 4.61 ± 0.31 | 4.17 ± 0.28 | 3.76 ± 0.26
11 | CCO [ethanol] + CCCOC[n+]1ccn(Cc2ccccc2)c1.F[B-](F)(F)F | 1.65 ± 0.11 | 1.49 ± 0.1 | 1.38 ± 0.09
12 | CC#N [acetonitrile] + CN(C)c1cc[n+](COCCCOC[n+]2ccc(N(C)C)cc2)cc1.O=S(=O)([N-]S(=O)(=O)C(F)(F)F)C(F)(F)F.O=S(=O)([N-]S(=O)(=O)C(F)(F)F)C(F)(F)F | 0.37 ± 0.03 | 0.37 ± 0.03 | 0.37 ± 0.03
13 | C[N+](=O)[O-] [nitromethane] + CCCCCCCCn1cc[n+](COCCCOC[n+]2ccn(CCCCCCCC)c2C)c1C.N#C[N-]C#N.N#C[N-]C#N | 0.44 ± 0.04 | 0.43 ± 0.04 | 0.42 ± 0.04
14 | CCC(=O)CC [pentan-3-one] + CCCOC[n+]1ccn(C)c1.F[B-](F)(F)F | 3.34 ± 0.23 | 3.36 ± 0.23 | 3.41 ± 0.23
15 | C#CCCCCC [1-heptyne] + CCCOC[n+]1ccc(N(C)C)cc1.O=S(=O)([N-]S(=O)(=O)C(F)(F)F)C(F)(F)F | 3.33 ± 0.23 | 3.35 ± 0.23 | 3.34 ± 0.23
16 | CCC[N+](=O)[O-] [1-nitropropane] + CCCOC[n+]1ccc(N(C)C)cc1.O=S(=O)([N-]S(=O)(=O)C(F)(F)F)C(F)(F)F | 0.68 ± 0.05 | 0.69 ± 0.05 | 0.69 ± 0.05
17 | CCCCCCCCCCC [undecane] + CCCCCCCCn1cc[n+](COCCCOC[n+]2ccn(CCCCCCCC)c2C)c1C.O=S(=O)([N-]S(=O)(=O)C(F)(F)F)C(F)(F)F.O=S(=O)([N-]S(=O)(=O)C(F)(F)F)C(F)(F)F | 12.4 ± 0.85 | 11.1 ± 0.76 | 10.6 ± 0.72
18 | CCCC(C)=O [pentan-2-one] + CCCOC[n+]1ccc(N(C)C)cc1.O=S(=O)([N-]S(=O)(=O)C(F)(F)F)C(F)(F)F | 0.75 ± 0.05 | 0.78 ± 0.05 | 0.78 ± 0.05
19 | CCc1ccccc1 [ethylbenzene] + CCCOC[n+]1ccn(C)c1.F[B-](F)(F)F | 11 ± 0.75 | 10.8 ± 0.74 | 10.7 ± 0.73
20 | Cc1ccccc1 [toluene] + Cn1cc[n+](COCCCOC[n+]2ccn(C)c2)c1.N#C[N-]C#N.N#C[N-]C#N | 5.63 ± 0.38 | 5.58 ± 0.38 | 5.49 ± 0.37
21 | CCCCO [butan-1-ol] + CCCCCCCCn1cc[n+](COCCCOC[n+]2ccn(CCCCCCCC)c2C)c1C.N#C[N-]C#N.N#C[N-]C#N | 7.49 ± 0.51 | 5.96 ± 0.41 | 4.81 ± 0.33
